Assay results reported in patent US10556098B2, “Microneedle array coated with drug composition” (TEIJIN LIMITED, priority 2012, dated 2020).

Key:
[1] = parameters: species or system SD rat; conditions: rat, in vivo
Method: Additive: 0.5 w/w sodium carboxymethylcellulose ([…] % hydroxypropylcellulose 1000-5000 mPa·s […] Water: 97.75 w/w % The coater shown in FIG. 5 (the volume of a drug aqueous solution: 4 ml) was used. […] After coating said microneedle array with the solution, the microneedle array was dried at room temperature (20-25° C.) for 60 seconds. The hair of the nine-week old male SD rat's abdomen was removed with a hair clipper and a shaver. The microneedle array of FIG. 7 was pressed onto the rat's skin with a finger, and fixed with tape. After one hour, the microneedle array was removed. In order to evaluate the amount of residual desmopressin acetate (the amount remained on the skin surface and the amount attached to the microneedle array), desmopressin acetate was collected as follows. The skin surface was wiped with Kimwipes® impregnated with ethanol, and the amount of the drug collected from the skin was investigated by measuring the drug in the Kimwipes® with a HPLC. The collected microneedle array was immersed in 75% methanol, and the amount of the collected drug was measured with a HPLC.

in vivo = test: in vivo; parameters: species or system SD rat; conditions: rat
Method: The hair of the nine-week old male SD rat's abdomen was removed with a hair clipper and a shaver. […] Also, the microneedle array after the administration was immersed in 75% methanol, and the amount of the collected drug was measured with a HPLC.

For NC(=O)CC[C@@H]1NC(=O)[C@H](Cc2ccccc2)NC(=O)[C@H](Cc2ccc(O)cc2)NC(=O)CCSSC[C@@H](C(=O)N2CCC[C@H]2C(=O)N[C@H](CCCN=C(N)N)C(=O)NCC(N)=O)NC(=O)[C@H](CC(N)=O)NC1=O [desmopressin acetate], which “Needles after 1 hour adhesion C (residual drug on microneedle array)” value [1] is on record?
Its value is under 0.025 µg.

What about the “Skin after 1 hour adhesion D (residual drug on skin surface)” value [1] of the same molecule?
Its value is under 0.025 µg.

What about the AUC (in vivo; male, SD, 4.88 ug) of the same molecule?
The AUC was 14.3 ng·h/mL.

What about the Skin absorption amount (in vivo) of the same molecule?
Its Skin absorption amount is over 4.83.

What about the “Transfer into the blood (change in blood levels, FIG. 8)” value (in vivo) of the same molecule?
Its value is “rapidly transferred in the blood”.

And the “Amount remained on microneedle array” value (in vivo; 0.5 h)?
Its value is under 0.025.

And the “Amount remained on skin surface” value (in vivo; 0.5 h)?
Its value is under 0.025.
